The values that follow come from ChEMBL document CHEMBL1201862, “PubChem BioAssay data set” (2004).

Test systems include HOP-92; HCT-15; SNB-75; UACC-257; T47D; A498; SW-620; BT-549; ACHN; NCI-H522; MCF7; NCI-H23; KM12; HCT-116; PC-3; DU-145; COLO 205; SK-MEL-5; OVCAR-4; NCI-H460.
What all share (assay): inhibition of tumour cell growth, NCI panel, 48 h

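Cultured in 96-well plates, cells were exposed to test compound for 48 hours across five concentrations. At the GI50, growth is halved.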 The source made the active and inactive calls. No stated cut-off is given here; in the data, active = GI50 up to about 1.1 µM and inactive = higher. Some results are limits rather than exact numbers.

With `C=C1C(=O)OC2/C=C(\C)C3OC3/C=C(/C(=O)OC)C(OC(C)=O)C(OC(=O)C(C)(O)C(C)OC(C)=O)C12` (stereo not given), the GI50 in the assay on HOP-92 is 1.9 µM (inactive); with HCT-15, 6.24 µM; in the assay on SNB-75, 2.81 µM (inactive); with UACC-257, 0.679 µM (active); with T47D, 6.3 µM (inactive); with A498, 3.24 µM (inactive). Also, the GI50 in the assay on SW-620 is 0.796 µM (active); in the assay on BT-549 it was 1.04 µM (active); in the assay on ACHN it was 3.78 µM (inactive); in the assay with NCI-H522, 0.284 µM (active); in the assay with MCF7 it was 0.736 µM (active); in the assay on NCI-H23, 2.5 µM (inactive). Also, the GI50 in the assay on KM12 was 2.49 µM (inactive); with HCT-116 it was 1.27 µM (inactive); in the assay on PC-3, 3.96 µM (inactive); in the assay on DU-145 it was > 10 µM (inactive); in the assay on COLO 205, 1.29 µM (inactive); in the assay on SK-MEL-5 it was 2.5 µM (inactive). Further, the results for the GI50 in the assay on OVCAR-4 and in the assay with NCI-H460 were 3.5 µM (inactive) and 3.45 µM (inactive), respectively.

`Cc1cc(C)nc(NS(=O)(=O)c2ccc(NC(=O)c3cccc4c(NNc5ccc(S(=O)(=O)N=C(N)N)cc5)c5ccccc5nc34)cc2)n1`: the GI50 with HOP-92 was > 50 µM (inactive); with HCT-15 it was above 50 µM; with SNB-75, 41.9 µM (inactive); in the assay on UACC-257 it was > 50 µM (inactive); in the assay with T47D, > 50 µM (inactive); in the assay on A498, > 50 µM (inactive). For the same compound, the GI50 in the assay on SW-620, in the assay with BT-549, in the assay with ACHN, in the assay with NCI-H522, in the assay with MCF7 and with NCI-H23 was > 50 µM (inactive) each time. Moreover, the GI50 in the assay with KM12, in the assay with HCT-116, with PC-3, with DU-145, with COLO 205 and with SK-MEL-5 was > 50 µM (inactive) each time. The GI50 with OVCAR-4 and in the assay on NCI-H460 was > 50 µM (inactive) each time.

Turning to `O=C(/C=C/c1ccc(O)cc1)c1ccc(O)cc1` [4,4'-DIHYDROXYCHALCONE], the GI50 in the assay with HOP-92 is 31.6 µM (inactive); in the assay with HCT-15, 20.3 µM; in the assay on SNB-75, 20.9 µM (inactive); with UACC-257, 29.5 µM (inactive); with T47D, 44.1 µM (inactive); in the assay with A498, 31 µM (inactive). Further, the GI50 with SW-620 was 26.1 µM (inactive); in the assay on BT-549, 32.6 µM (inactive); in the assay with ACHN it was 23.9 µM (inactive); with NCI-H522, 3.94 µM (inactive); in the assay with MCF7 it was 32.9 µM (inactive); in the assay on NCI-H23, 25.5 µM (inactive). Moreover, the GI50 with KM12 is 11.9 µM (inactive); in the assay with HCT-116 it was 16.8 µM (inactive); in the assay with PC-3, 28.7 µM (inactive); in the assay with DU-145, 34.2 µM (inactive); with COLO 205, 30.4 µM (inactive); with SK-MEL-5, 21.5 µM (inactive). In addition, the GI50 in the assay with OVCAR-4 is > 69.8 µM (inactive); in the assay with NCI-H460 it was 26.8 µM (inactive).

In the case of `CC(=O)[C@]1(O)Cc2c(O)c3c(c(O)c2C(OC2OC(C)C(O)C(O)C2F)C1)C(=O)c1ccccc1C3=O` (stereo not given in full), the GI50 in the assay on HOP-92 is 0.055 µM (active); in the assay with HCT-15, 0.0516 µM; with SNB-75, 0.0664 µM (active); in the assay with UACC-257 it was 0.225 µM (active); with T47D, 0.0395 µM (active); in the assay with A498 it was 0.0581 µM (active). Further, the GI50 is 0.0796 µM (active) with SW-620; 0.358 µM (active) in the assay on BT-549; 0.0107 µM (active) in the assay with ACHN; 0.316 µM (active) with NCI-H522; < 0.01 µM (active) with MCF7; 0.0371 µM (active) in the assay on NCI-H23. For the same compound, the GI50 in the assay with KM12 was 0.158 µM (active); with HCT-116 it was 0.0565 µM (active); in the assay on PC-3 it was 0.316 µM (active); in the assay on DU-145, 0.0502 µM (active); in the assay on COLO 205, 0.259 µM (active); in the assay with SK-MEL-5, 0.0516 µM (active). The GI50 was 0.914 µM (active) in the assay on OVCAR-4 and < 0.01 µM (active) with NCI-H460.

On to `C[n+]1cccc(/C=C/c2ccc3cccc(O)c3n2)c1`, for which the GI50 in the assay on HOP-92 was > 100 µM (inactive); in the assay with HCT-15, above 100 µM; in the assay with SNB-75, > 100 µM (inactive); in the assay on UACC-257, > 100 µM (inactive); in the assay on T47D, 83.2 µM (inactive); with A498, > 100 µM (inactive). The GI50 with SW-620 is > 100 µM (inactive); in the assay with BT-549, 84.9 µM (inactive); with ACHN, > 100 µM (inactive); in the assay on NCI-H522, 24.8 µM (inactive); in the assay with MCF7 it was 72.4 µM (inactive); in the assay on NCI-H23 it was 58.2 µM (inactive). Moreover, the GI50 was > 100 µM (inactive) with KM12; > 100 µM (inactive) with HCT-116; > 100 µM (inactive) in the assay on PC-3; > 100 µM (inactive) in the assay on DU-145; > 100 µM (inactive) in the assay with COLO 205; 37.1 µM (inactive) in the assay with SK-MEL-5. Further, the GI50 in the assay with OVCAR-4 is > 100 µM (inactive); with NCI-H460, 68.7 µM (inactive).

With `CCOC(=O)C(=CNc1ccc(NC2=NCC(C)S2)cc1)C(=O)OCC` (stereo not given), the GI50 is 30.4 µM (inactive) in the assay on HOP-92; 15.2 µM with HCT-15; 22.1 µM (inactive) in the assay on SNB-75; 26.5 µM (inactive) in the assay on UACC-257; 24.8 µM (inactive) with T47D; 28.8 µM (inactive) with A498. In addition, the GI50 with SW-620 is 31 µM (inactive); in the assay on BT-549, 15.2 µM (inactive); in the assay on ACHN, 18.7 µM (inactive); in the assay on NCI-H522, 2.66 µM (inactive); in the assay on MCF7, 30.3 µM (inactive); with NCI-H23, 28.1 µM (inactive). In addition, the GI50 in the assay with KM12 was 16.6 µM (inactive); in the assay with HCT-116, 35.2 µM (inactive); in the assay with PC-3 it was 16.1 µM (inactive); with DU-145, 46.5 µM (inactive); in the assay on COLO 205, 35.6 µM (inactive); with SK-MEL-5, 16.5 µM (inactive). Besides, the GI50 is 9.62 µM (inactive) with OVCAR-4 and 31.6 µM (inactive) in the assay with NCI-H460.

As to `Oc1ccc2ccccc2c1-c1nnc(CCCCCCCCc2nnc(-c3c(O)ccc4ccccc34)o2)o1`, the GI50 in the assay with HOP-92 is 9.82 µM (inactive); with HCT-15, 0.815 µM; in the assay on SNB-75, 21.4 µM (inactive); in the assay on UACC-257, 10.2 µM (inactive); in the assay on T47D, 4 µM (inactive); with A498, 16.5 µM (inactive). The GI50 was 3.44 µM (inactive) in the assay with SW-620; 23.1 µM (inactive) with BT-549; 0.741 µM (active) in the assay with ACHN; 0.63 µM (active) in the assay with NCI-H522; 8.95 µM (inactive) with MCF7; 5.21 µM (inactive) in the assay with NCI-H23. Besides, the GI50 with KM12 was 27.2 µM (inactive); in the assay on HCT-116, 1.18 µM (inactive); with PC-3, 1.98 µM (inactive); in the assay with DU-145 it was 5.08 µM (inactive); in the assay on COLO 205, 15.3 µM (inactive); with SK-MEL-5, 0.838 µM (active). Besides, the GI50 is 1.15 µM (inactive) in the assay with OVCAR-4 and 0.955 µM (active) with NCI-H460.

For the compound `CC(C)NCC(O)c1cc(OCc2ccccc2)c(OCc2ccccc2)cc1NC(=O)CCC(=O)O` (stereo not given), the GI50 in the assay with HOP-92 is 4.78 µM (inactive); in the assay on HCT-15 it was 3.24 µM; with SNB-75 it was 10.6 µM (inactive); with UACC-257 it was 13.4 µM (inactive); in the assay on T47D, 10 µM (inactive); in the assay with A498 it was 11 µM (inactive). Besides, the GI50 with SW-620 is 2.61 µM (inactive); in the assay with BT-549, 15.8 µM (inactive); in the assay with ACHN it was 3.18 µM (inactive); in the assay with NCI-H522, 3.52 µM (inactive); in the assay with MCF7 it was 5.69 µM (inactive); in the assay on NCI-H23, 13.2 µM (inactive). Further, the GI50 with KM12 was 4.28 µM (inactive); in the assay on HCT-116, 5.22 µM (inactive); in the assay with PC-3, 9.02 µM (inactive); in the assay with DU-145, 13 µM (inactive); with COLO 205, 2.06 µM (inactive); in the assay with SK-MEL-5, 2.1 µM (inactive). Besides, the GI50 in the assay on OVCAR-4 is 11.5 µM (inactive); in the assay on NCI-H460, 1.85 µM (inactive).

For the compound `Cc1nc(C)c(N2CCN(S(=O)(=O)N(Cc3ccccc3)Cc3ccccc3)CC2)c(O)n1`, the GI50 was 9.73 µM (inactive) in the assay with HOP-92; above 100 µM with HCT-15; 5.31 µM (inactive) with SNB-75; > 100 µM (inactive) in the assay with UACC-257; 24.1 µM (inactive) in the assay on T47D; > 51.9 µM (inactive) with A498. Besides, the GI50 in the assay on SW-620 is > 100 µM (inactive); in the assay on BT-549 it was > 57.4 µM (inactive); with ACHN, 28.6 µM (inactive); in the assay with NCI-H522, 4.85 µM (inactive); in the assay with MCF7, > 43.6 µM (inactive); with NCI-H23, 14.3 µM (inactive). The GI50 in the assay with KM12 was > 100 µM (inactive); with HCT-116, 53 µM (inactive); in the assay on PC-3 it was 41.8 µM (inactive); with DU-145, > 59.4 µM (inactive); in the assay with COLO 205 it was > 100 µM (inactive); in the assay on SK-MEL-5, > 100 µM (inactive). Also, the GI50 was 0.836 µM (active) in the assay on OVCAR-4 and > 46.9 µM (inactive) in the assay with NCI-H460.

Take `Clc1ccc(-c2cc(-c3nc4ccccc4[nH]3)no2)cc1`: the GI50 is 33.7 µM (inactive) in the assay with HOP-92; 19.6 µM with HCT-15; 18.3 µM (inactive) in the assay with SNB-75; 18.8 µM (inactive) in the assay with UACC-257; 11.7 µM (inactive) with T47D; 18.9 µM (inactive) with A498. Besides, the GI50 in the assay on SW-620 was 22.4 µM (inactive); in the assay on BT-549, 21.6 µM (inactive); with ACHN, 17.4 µM (inactive); with NCI-H522 it was 19.2 µM (inactive); in the assay with MCF7, 15 µM (inactive); with NCI-H23 it was 18.9 µM (inactive). The GI50 was 20.8 µM (inactive) in the assay with KM12; 16.6 µM (inactive) in the assay on HCT-116; 23.3 µM (inactive) in the assay with PC-3; 11.4 µM (inactive) in the assay on DU-145; 20 µM (inactive) in the assay with COLO 205; 17.7 µM (inactive) in the assay with SK-MEL-5. Also, the GI50 with OVCAR-4 is 17.7 µM (inactive); with NCI-H460, 16.9 µM (inactive).
